Tested on: HeLa cells
Test: Live-cell fluorescence microscopy of intracellular distribution of transferrin-polymer conjugates
Format: cell-based, human
Conditions: 1 hour at 37° C.
Method: The intracellular distribution of fluorescently labeled transferrin-polymer conjugates was evaluated in cells using live-cell fluorescence microscopy. Cells were seeded in chamber slides at a concentration of 5000 cells/well. After allowing the cells adhere for 18 hours the media was replaced with fresh media containing the appropriate concentration of the copolymer-transferrin conjugates. Thirty minutes prior to imaging Hoechst (5 μg/mL) was added to the media and allowed to incubate at 37° C. After this time, the media was carefully aspirated and replaced with PBS. Immediately prior to imaging individual wells were aspirated and then treated with 2 μL of a 10 mg/mL cell mask stock in 200 μL of ice cold PBS. After 3 minutes the PBS was removed and washed three times with additional ice cold PBS. The mediChamber slides were placed on a Live-Cell Fluorescence Microscope (Nikon Ti-E) equipped with an environmental control chamber. […] After image acquisition, image stacks were deconvolved using object-based measurement software, Velocity (Perkin Elmer), to remove out-of focus fluorescence for the identification of conjugate containing compartments. To deconvolved image stacks, point spread functions were calculated for the green, blue, and deep red channel and applied using 25 iterations to reach a near 100 percent confidence interval. […]

fluorescently (ALEXA 488) labeled Transferrin
intracellular localisation of fluorescence: strongly localized within endosomes/lysosomes

Reference: patent publication US20190365906A1, “RANDOM COPOLYMER THERAPEUTIC AGENT CARRIERS AND ASSEMBLIES THEREOF” (University of Washington through its Center for …, priority 2013, published 2019)
